Assay [1] deals with T1, PI3K delta (PI3 Kd) (Homo sapiens, UniProt O00329).
T1 construct: endogenous in cells; host or cells: Jurkat, clone E6-1 (ATCC TIB-152) cell lysate
Nature of the assay: kinobeads assay, PI3K delta. The class given is binding. The method, boiled down:
(§1)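 IC50 values came from dose-response curves after test compound (1:3 series) competed with an immobilized phenylmorpholin-chromen affinity matrix for kinases in Jurkat lysate at 5 mg/mL protein. Eluted captured DNA-PK and PI3Kδ were measured by specific-antibody dot blot and infrared imaging. Buffer was Tris pH 7.4, NP40, MgCl2, NaCl, vanadate, DTT, NaF.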

Assay [2] addresses T2, DNA-dependent protein kinase (DNA-PK) (Homo sapiens, UniProt P78527).
T2 construct: endogenous in cells; host or cells: Jurkat, clone E6-1 (ATCC TIB-152) cell lysate
Kind of assay: kinobeads assay, DNA-PK. The class given is binding. In a few lines:
as §1

Where [3] appears, read: Further Kinobeads Data, read-out: PI3Kd.
The mark [4] stands for this setting: Further Kinobeads Data, read-out: DNAPK.
The mark [5] stands for this setting: kinobeads assay, Table 4, read-out: Inhibition values (IC50) PI3Kd.
The mark [6] stands for this setting: kinobeads assay, Table 6, read-out: Inhibition values (IC50) PI3Kd.
The mark [7] stands for this setting: kinobeads assay, Table 4, read-out: Inhibition values (IC50) DNA-PK.
[8] abbreviates: kinobeads assay, Table 6, read-out: Inhibition values (IC50) DNAPK.

Structures are written as SMILES. Where two headings read alike, the source gives them in different places.

T1 sequence (O00329 whole entry): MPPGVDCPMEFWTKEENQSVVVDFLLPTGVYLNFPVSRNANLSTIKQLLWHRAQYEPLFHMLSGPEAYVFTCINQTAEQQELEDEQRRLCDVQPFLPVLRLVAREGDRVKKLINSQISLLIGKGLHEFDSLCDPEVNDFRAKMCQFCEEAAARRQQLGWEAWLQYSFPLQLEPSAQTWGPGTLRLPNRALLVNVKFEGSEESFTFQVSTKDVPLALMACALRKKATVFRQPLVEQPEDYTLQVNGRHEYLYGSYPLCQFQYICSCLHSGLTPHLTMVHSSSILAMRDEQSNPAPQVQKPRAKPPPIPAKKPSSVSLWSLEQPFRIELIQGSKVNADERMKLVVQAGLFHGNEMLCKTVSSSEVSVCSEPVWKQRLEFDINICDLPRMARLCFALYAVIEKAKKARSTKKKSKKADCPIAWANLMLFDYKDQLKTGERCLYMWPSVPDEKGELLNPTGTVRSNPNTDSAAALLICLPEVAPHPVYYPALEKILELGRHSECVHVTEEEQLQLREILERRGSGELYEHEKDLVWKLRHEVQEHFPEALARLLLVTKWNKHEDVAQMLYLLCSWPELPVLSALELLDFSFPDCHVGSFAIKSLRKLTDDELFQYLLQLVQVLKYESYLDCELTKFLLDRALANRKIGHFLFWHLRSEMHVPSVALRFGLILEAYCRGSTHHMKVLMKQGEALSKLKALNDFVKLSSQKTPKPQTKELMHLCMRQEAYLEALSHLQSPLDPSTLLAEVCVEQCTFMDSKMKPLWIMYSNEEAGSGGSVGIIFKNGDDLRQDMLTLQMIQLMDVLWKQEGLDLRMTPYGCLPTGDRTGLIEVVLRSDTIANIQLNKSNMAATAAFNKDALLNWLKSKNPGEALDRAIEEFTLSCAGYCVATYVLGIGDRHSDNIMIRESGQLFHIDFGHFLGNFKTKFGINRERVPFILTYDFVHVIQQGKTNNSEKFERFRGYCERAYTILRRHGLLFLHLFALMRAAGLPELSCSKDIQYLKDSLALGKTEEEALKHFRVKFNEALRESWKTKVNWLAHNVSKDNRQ
T1 sequence (P27986 whole entry partner): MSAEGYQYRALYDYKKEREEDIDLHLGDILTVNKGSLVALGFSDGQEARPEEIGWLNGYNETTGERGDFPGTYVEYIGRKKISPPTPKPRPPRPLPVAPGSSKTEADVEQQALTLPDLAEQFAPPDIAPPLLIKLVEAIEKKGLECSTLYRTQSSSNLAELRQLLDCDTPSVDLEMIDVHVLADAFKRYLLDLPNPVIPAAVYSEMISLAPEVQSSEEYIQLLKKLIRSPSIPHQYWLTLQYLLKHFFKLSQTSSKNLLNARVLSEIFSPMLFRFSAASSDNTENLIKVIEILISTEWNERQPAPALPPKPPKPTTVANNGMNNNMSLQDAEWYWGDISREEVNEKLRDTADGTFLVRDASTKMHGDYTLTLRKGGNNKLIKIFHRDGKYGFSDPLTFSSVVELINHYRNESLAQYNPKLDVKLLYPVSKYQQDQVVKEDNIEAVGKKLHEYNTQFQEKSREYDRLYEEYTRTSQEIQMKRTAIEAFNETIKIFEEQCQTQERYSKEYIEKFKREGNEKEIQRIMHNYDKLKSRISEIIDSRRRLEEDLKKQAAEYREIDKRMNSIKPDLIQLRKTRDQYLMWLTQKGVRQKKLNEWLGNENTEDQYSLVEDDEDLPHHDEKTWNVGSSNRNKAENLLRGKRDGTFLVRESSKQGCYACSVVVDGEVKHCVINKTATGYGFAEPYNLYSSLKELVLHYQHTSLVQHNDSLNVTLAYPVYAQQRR

For `CC(C)C(=O)N1Cc2nc(-c3ccc(NC(=O)NC4CC4)cc3F)nc(N3CCOC[C@@H]3C)c2C1` [Example 174, (S)-1-cyclopropyl-3-(3-fluoro-4-(6-isobutyryl-4-(3-methylmorpholino)-6,7-dihydro-5H-pyrrolo[3,4-d]pyrimidin-2-yl)phenyl)urea], the IC50 in assay [1] (setting [3]) and in assay [2] (setting [4]) was above 10 µM throughout.

Turning to `CCNC(=O)Nc1ccc(-c2nc3c(c(N4CCOC[C@@H]4C)n2)CN(C(=O)OC)C3)c(F)c1` [Example 152, (S)-methyl 2-(4-(3-ethylureido)-2-fluorophenyl)-4-(3-methylmorpholino)-5H-pyrrolo[3,4-d]pyrimidine-6-(7H)-carboxylate], the IC50 in assay [1] (setting [3]) is 1 to 10 µM; in assay [2] (setting [4]), above 10 µM.

Take `C[C@H]1COCCN1c1nc(-c2ccc(NC(=O)Nc3ccc(F)cc3)cc2)nc2c1CN(C)C2` [Example 52, (S)-1-(4-fluorophenyl)-3-(4-(6-methyl-4-(3-methylmorpholino)-6,7-dihydro-5H-pyrrolo[3,4-d]pyrimidin-2-yl)phenyl)urea]: the IC50 in assay [1] (setting [5]), in assay [1] (setting [6]), in assay [2] (setting [7]) and in assay [2] (setting [8]) was above 10 µM each time.

`C[C@H]1COCCN1c1nc(-c2ccc(NC(=O)NC3CC3)cc2)nc2c1CN(C(=O)C1CC1)C2` [Example 17, (S)-1-(4-(6-(cyclopropanecarbonyl)-4-(3-methylmorpholino)-6,7-dihydro-5H-pyrrolo[3,4-d]pyrimidin-2-yl)phenyl)-3-cyclopropylurea]: the IC50 in assay [1] (setting [5]), in assay [1] (setting [6]), in assay [2] (setting [7]) and in assay [2] (setting [8]) was above 10 µM in each case.

Regarding `CNC(=O)Nc1ccc(-c2nc3c(c(N4CCOC[C@@H]4C)n2)CN(CC2CC2)C3)cc1` [Example 47, (S)-1-(4-(6-(cyclopropylmethyl)-4-(3-methylmorpholino)-6,7-dihydro-5H-pyrrolo[3,4-d]pyrimidin-2-yl)phenyl)-3-methylurea], the IC50 was 1 to 10 µM in assay [1] (setting [5]), 1 to 10 µM in assay [1] (setting [6]), above 10 µM in assay [2] (setting [7]) and above 10 µM in assay [2] (setting [8]).

In the case of `COC(=O)N1Cc2nc(-c3ccc(NC(=O)NCCF)cc3F)nc(N3CCOCC3)c2C1` [Example 169, Methyl 2-(2-fluoro-4-(3-(2-fluoroethyl)ureido)phenyl)-4-morpholino-5H-pyrrolo[3,4-d]pyrimidine-6(7H)-carboxylate], the IC50 in assay [2] (setting [4]) is above 10 µM.

As for `C[C@H]1COCCN1c1nc(-c2ccc(NC(=O)NC3CC3)cc2F)nc2c1CN(S(C)(=O)=O)C2` [Example 177, (S)-1-cyclopropyl-3-(3-fluoro-4-(4-(3-methylmorpholino)-6-(methylsulfonyl)-6,7-dihydro-5H-pyrrolo[3,4-d]pyrimidin-2-yl)phenyl)urea], the IC50 in assay [1] (setting [3]) and in assay [2] (setting [4]) was above 10 µM in each case.

As to `CCNC(=O)Nc1cc(F)c(-c2nc3c(c(N4CCOC[C@@H]4C)n2)CN(C(=O)OCC)C3)cc1F` [Example 141, (S)-ethyl 2-(4-(3-ethylureido)-2,5-difluorophenyl)-4-(3-methylmorpholino)-5H-pyrrolo[3,4-d]pyrimidine-6(7H)-carboxylate], the IC50 in assay [1] (setting [3]) and in assay [2] (setting [4]) was above 10 µM in each case.

Regarding `C[C@H]1COCCN1c1nc(-c2ccc(NC(=O)NC3CC3)cc2)nc2c1CCN(CC1CC1)C2` [Example 40, (S)-1-cyclopropyl-3-(4-(7-(cyclopropylmethyl)-4-(3-methylmorpholino)-5,6,7,8-tetrahydropyrido[3,4-d]pyrimidin-2-yl)phenyl)urea], the IC50 in assay [1] (setting [5]), in assay [1] (setting [6]), in assay [2] (setting [7]) and in assay [2] (setting [8]) was above 10 µM in each case.

With `C[C@H]1COCCN1c1nc(-c2ccc(NC(=O)NC3CCC3)cc2)nc2c1CN(C)C2` [Example 55, (S)-1-cyclobutyl-3-(4-(6-methyl-4-(3-methylmorpholino)-6,7-dihydro-5H-pyrrolo[3,4-d]pyrimidin-2-yl)phenyl)urea], the IC50 in assay [2] (setting [7]) and in assay [2] (setting [8]) was above 10 µM in each case.

The values above are taken from US8785457B2 (Cellzome Limited, priority 2009, dated 2014).
